Patent US20120197004A1, “NOVEL ANTI-MICROBIAL PEPTIDOMIMETIC COMPOUNDS AND METHODS TO CALCULATE ANTI-MICROBIAL ACTIVITY” (priority 2006, published 2012)
≈ marks a conversion by molar mass, not a printed value. Read-outs that look alike come from different tables or passages of the source. Where a SMILES comes first, the peptide text is derived from it. [ ]: non-standard residue; d: D form. ξ: configuration not given here. Phe(4-F) = N[C@@H](Cc1ccc(F)cc1)C(=O)O; ξTic = O=C(O)C1Cc2ccccc2CN1; ξOic = O=C(O)C1CC2CCCCC2N1; Dab = NCC[C@H](N)C(=O)O; Ahx = NCCCCCC(=O)O; GABA = NCCCC(=O)O

Tests used:
[1] = tested on: Mycobacterium ranae (ATCC 110); conditions: ATCC 110
[2] = tested on: B. melitensis 16M; conditions: in vitro MIC
[3] = tested on: Bacillus anthracis Ames; conditions: in vitro MIC
[4] = in vitro; conditions: mouse, microsomes, pH 7.4
[5] = in vitro; conditions: dog, microsomes, pH 7.4
[6] = in vitro; conditions: human, microsomes, pH 7.4
[7] = in vitro; conditions: rat, microsomes, pH 7.4
[8] = tested on: Plague CO92; conditions: in vitro MIC
[9] = tested on: F. tularensis SCHU-S4; conditions: in vitro MIC
[10] = tested on: Staphylococcus aureus Methicillin/Gentamicin/Tetracycline Resistant (ATCC 33592); conditions: for Minimum Inhibitory Concentration Staphylococcus aureus ME/GM/TC resistant: in vitro MIC, tested at 100, 30, 10, 3, 1, 0.3 and 0.1 μM in 1% DMSO
[11] = in vitro; conditions: monkey, microsomes, pH 7.4
[12] = tested on: Bacillus subtillis (ATCC 43223); conditions: ATCC 43223
[13] = tested on: red blood cells
[14] = tested on: Salmonella typhimurium (ATCC 13311); conditions: ATCC 13311

Structure (SMILES) | Minimum Inhibitory Concentration Mycobacterium ranae [1] | Minimum Inhibitory Concentration B. melitensis 16M [2] | remaining at 0.25 h, 1 μM [4] | remaining at 0.5 h, 1 μM [4] | remaining at 1 h, 1 μM [4] | remaining at 0.5 h, 1 μM [5] | remaining at 1 h, 1 μM [5] | remaining at 0.25 h, 1 μM [6] | remaining at 0.25 h, 1 μM [7] | remaining at 0.5 h, 1 μM [7] | Minimum Inhibitory Concentration F. tularensis SCHU-S4 [9] | Minimum Inhibitory Concentration Staphylococcus aureus ME/GM/TC resistant [10] | remaining at 0.25 h, 1 μM [11] | remaining at 0.5 h, 1 μM [11] | remaining at 1 h, 1 μM [7] | remaining at 1 h, 1 μM [11] | MIC Mycobacterium ranae [1] | MIC Bacillus Subtillis [12] | MIC Salmonella typhimurium [14] | further results
CC(=O)NCC(=O)N[C@@H](Cc1ccccc1)C(=O)N1Cc2ccccc2CC1C(=O)N1C(C(=O)NCC(=O)N[C@@H](CCCCN)C(=O)N2Cc3ccccc3CC2C(=O)N2C(C(=O)NCC(=O)N[C@@H](Cc3ccccc3)C(=O)N3Cc4ccccc4CC3C(=O)N3C(C(=O)NCC(=O)N[C@@H](CCCCN)C(=O)N4Cc5ccccc5CC4C(=O)NCCCCCC(=O)N[C@@H](CCCCN)C(=O)N[C@@H](CCCCN)C(=O)N[C@@H](CCCCN)C(=O)N[C@@H](CCCCN)C(N)=O)CC4CCCCC43)CC3CCCCC32)CC2CCCCC21 (stereo partly drawn) [FKAB-1G-Ahx, Ac-GF-Tic-Oic-GK-Tic-Oic-GF-Tic-Oic-GK-Tic-Ahx-KKKK-CONH2] (Ac-GF[ξTic][ξOic]GK[ξTic][ξOic]GF[ξTic][ξOic]GK[ξTic][Ahx]KKKK-NH2) | 10 µM | >500 µg/mL | 97% | 98% | 113% | 79% | 84% | 112% | 120% | 106% | 250 µg/mL | 30 µM |  |  |  |  |  |  |  | Minimum Inhibitory Concentration Bacillus anthracis Ames ([3]; listed as 54): 1.95 µg/mL; Minimum Inhibitory Concentration Plague CO92 ([8]; listed as 54): 15.6 µg/mL
CC(=O)NCC(=O)N[C@@H](Cc1ccccc1)C(=O)N1Cc2ccccc2CC1C(=O)N1C(C(=O)NCC(=O)N[C@@H](CCCCN)C(=O)N2Cc3ccccc3CC2C(=O)N2C(C(=O)NCC(=O)N[C@@H](Cc3ccccc3)C(=O)N3Cc4ccccc4CC3C(=O)N3C(C(=O)NCC(=O)N[C@@H](CCCCN)C(=O)N4Cc5ccccc5CC4C(=O)NCCCC(=O)N[C@@H](CCCCN)C(=O)N[C@@H](CCCCN)C(=O)N[C@@H](CCCCN)C(=O)N[C@@H](CCCCN)C(N)=O)CC4CCCCC43)CC3CCCCC32)CC2CCCCC21 (stereo partly drawn) [FKAB-1G-Gaba, Ac-GF-Tic-Oic-GK-Tic-Oic-GF-Tic-Oic-GK-Tic-Gaba-KKKK-CONH2] (Ac-GF[ξTic][ξOic]GK[ξTic][ξOic]GF[ξTic][ξOic]GK[ξTic][GABA]KKKK-NH2) | 3 µM | >500 µg/mL | 88% | 71% | 66% | 80% | 86% | 118% | 113% | 72% | >500 µg/mL | 10 µM | 117% | 120% | 104% |  |  |  |  | Minimum Inhibitory Concentration Bacillus anthracis Ames ([3]; listed as 53): 0.98 µg/mL; Minimum Inhibitory Concentration Plague CO92 ([8]; listed as 53): 31.25 µg/mL
CC(=O)NCC(=O)N[C@@H](Cc1ccccc1)C(=O)N1Cc2ccccc2CC1C(=O)N1C(C(=O)NCC(=O)N[C@@H](Cc2c[nH]c3ccccc23)C(=O)N2Cc3ccccc3CC2C(=O)N2C(C(=O)NCC(=O)N[C@@H](Cc3ccccc3)C(=O)N3Cc4ccccc4CC3C(=O)N3C(C(=O)NCC(=O)N[C@@H](Cc4c[nH]c5ccccc45)C(=O)N4Cc5ccccc5CC4C(=O)N[C@@H](CCCCN)C(=O)N[C@@H](CCCCN)C(=O)N[C@@H](CCCCN)C(=O)N[C@@H](CCCCN)C(N)=O)CC4CCCCC43)CC3CCCCC32)CC2CCCCC21 (stereo partly drawn) [FKAB-1G-Trp, Ac-GF-Tic-Oic-GW-Tic-Oic-GF-Tic-Oic-GW-Tic-KKKK-CONH2] (Ac-GF[ξTic][ξOic]GW[ξTic][ξOic]GF[ξTic][ξOic]GW[ξTic]KKKK-NH2) | 100 µM | >500 µg/mL | 54% | 81% | 106% | 116% |  | 112% |  | 84% | >500 µg/mL | 30 µM | 0% | 0% | 0% | 0% |  |  |  | Minimum Inhibitory Concentration Bacillus anthracis Ames ([3]; listed as 57): 0.98 µg/mL; Minimum Inhibitory Concentration Plague CO92 ([8]; listed as 57): >500 µg/mL
CC(=O)NCC(=O)N[C@@H](Cc1ccccc1)C(=O)N1Cc2ccccc2CC1C(=O)NCC(=O)N[C@@H](CCCCN)C(=O)N1Cc2ccccc2CC1C(=O)NCC(=O)N[C@@H](Cc1ccccc1)C(=O)N1Cc2ccccc2CC1C(=O)NCC(=O)N[C@@H](CCCCN)C(=O)N1Cc2ccccc2CC1C(=O)N[C@@H](CCCCN)C(=O)N[C@@H](CCCCN)C(=O)N[C@@H](CCCCN)C(=O)N[C@@H](CCCCN)C(N)=O (stereo partly shown) [FKAB-1Gg, Ac-GF-Tic-GK-Tic-GF-Tic-GK-Tic-KKKK-CONH2] (Ac-GF[ξTic]GK[ξTic]GF[ξTic]GK[ξTic]KKKK-NH2) |  | >500 µg/mL |  |  |  |  |  |  |  |  | 250 µg/mL |  |  |  |  |  | 30.00 µM (≈ 59.6 µg/mL) | 10.00 µM (≈ 19.9 µg/mL) | 100 µM (≈ 199 µg/mL) | Minimum Inhibitory Concentration Bacillus anthracis Ames ([3]; listed as 34): 0.98 µg/mL; % hemolysis 100/25 μM (first value) ([13]; 100 μM): 6%; % hemolysis 100/25 μM (second value) [13]; 25: 4.9%; Minimum Inhibitory Concentration Plague CO92 ([8]; listed as 34): 31.25 µg/mL
CC(=O)NCC(=O)N[C@@H](Cc1ccc(F)cc1)C(=O)N1Cc2ccccc2CC1C(=O)N1C(C(=O)NCC(=O)N[C@@H](CCCCN)C(=O)N2Cc3ccccc3CC2C(=O)N2C(C(=O)NCC(=O)N[C@@H](Cc3ccc(F)cc3)C(=O)N3Cc4ccccc4CC3C(=O)N3C(C(=O)NCC(=O)N[C@@H](CCCCN)C(=O)N4Cc5ccccc5CC4C(=O)N[C@@H](CCCCN)C(=O)N[C@@H](CCCCN)C(=O)N[C@@H](CCCCN)C(=O)N[C@@H](CCCCN)C(N)=O)CC4CCCCC43)CC3CCCCC32)CC2CCCCC21 (stereo partly drawn) [FKAB-1Go, Ac-G-Fpa-Tic-Oic-GK-Tic-Oic-G-Fpa-Tic-Oic-GK-Tic-KKKK-CONH2] (Ac-G[Phe(4-F)][ξTic][ξOic]GK[ξTic][ξOic]G[Phe(4-F)][ξTic][ξOic]GK[ξTic]KKKK-NH2) | 3 µM | >500 µg/mL | 81% | 26% | 22% | 54% | 59% | 103% | 74% | 57% | 250 µg/mL | 10 µM | 57% | 65% | 75% | 94% | 3.00 µM (≈ 7.43 µg/mL) | 0.30 µM (≈ 0.743 µg/mL) | 30 µM (≈ 74.3 µg/mL) | Minimum Inhibitory Concentration Bacillus subtillis [12]: 0.3 µM; Minimum Inhibitory Concentration Bacillus anthracis Ames ([3]; listed as 44): 0.98 µg/mL; Minimum Inhibitory Concentration Plague CO92 ([8]; listed as 44): 31.25 µg/mL; Minimum Inhibitory Concentration Salmonella typhimurium [14]: 30 µM; MIC Staphylococcus aureus ME/GM/TC resistant ([10]; Minimal Inhibitory Concentration, tested at 100-0.1 in 1% DMSO): 10.00 µM (≈ 24.8 µg/mL)
CC(=O)NCC(=O)N[C@@H](Cc1ccccc1)C(=O)N1Cc2ccccc2CC1C(=O)N1C(C(=O)NCC(=O)N[C@@H](CCN)C(=O)N2Cc3ccccc3CC2C(=O)N2C(C(=O)NCC(=O)N[C@@H](Cc3ccccc3)C(=O)N3Cc4ccccc4CC3C(=O)N3C(C(=O)NCC(=O)N[C@@H](CCN)C(=O)N4Cc5ccccc5CC4C(=O)N[C@@H](CCN)C(=O)N[C@@H](CCN)C(=O)N[C@@H](CCN)C(=O)N[C@@H](CCN)C(N)=O)CC4CCCCC43)CC3CCCCC32)CC2CCCCC21 (stereo partly drawn) [FKAB-1Gz, Ac-GF-Tic-Oic-G-Dab-Tic-Oic-GF-Tic-Oic-G-Dab-Tic-Dab-Dab-Dab-Dab-CONH2] (Ac-GF[ξTic][ξOic]G[Dab][ξTic][ξOic]GF[ξTic][ξOic]G[Dab][ξTic][Dab][Dab][Dab][Dab]-NH2) | 10 µM | >500 µg/mL | 74% | 29% | 42% |  | 3% |  | 21% | 7% | 125 µg/mL | 10 µM |  | 119% | 80% |  |  |  |  | Minimum Inhibitory Concentration Bacillus anthracis Ames ([3]; listed as 55): 0.98 µg/mL; Minimum Inhibitory Concentration Plague CO92 ([8]; listed as 55): 15.6 µg/mL
